{
  "source": "patent US11607422B2",
  "about": "“Uttroside B and derivatives thereof as therapeutics for hepatocellular carcinoma” (Rajiv Gandhi Centre for Biotechnology, an Autonomous …, priority 2016, dated 2023)",
  "key": {"[1]": {"tested_on": "normal immortalized hepatocytes (Chang Liver)", "test": "MTT assay in normal immortalized hepatocytes", "format": "cell-based", "conditions": "at 1250 nM, 72 h", "procedure": "FIG. 2A is a graph comparison of IC50 of Uttroside B in a panel of cancer cells of different origin. The cancer cell lines HeLa, A375, HepG2, MDA-MB-231, HL 60, A549 and HCT116 were treated with Uttroside B as indicated, incubated for 72 h and the cell viability was assessed by MTT assay. FIG. 2B is a graph showing dose dependent effect of Uttroside B in the liver cancer cell lines and in normal immortalized hepatocytes. The liver cancer cell lines HepG2, Hep3B, SKHEP-1, Huh-7 and normal hepatocytes (Chang liver), were treated with Uttroside B incubated for 72 h and the cell viability was assessed by MTT assay. FIG. 2C is a graph comparison of IC50 of Uttroside B with sorafenib. HepG2 cells were treated with Uttroside B as indicated, incubated for 72 h, and the cell viability was assessed by MTT assay. […] The clones developed were counted and plotted as a graph. Colony containing more than four cells was counted as one clone. […]\nMTT [3-(4,5-dimethylthiazole-2-yl)-2,5-diphenyltetrazolium bromide] assay is a standard colorimetric assay, suitable for analyzing proliferation, viability, and cytotoxicity. […] After overnight incubation, cells were treated with different concentrations of organic extracts (25-250 μg/ml) of S. nigrum and the isolated compound Uttroside B (250-1250 nM) for 72 h and cytotoxicity was measured. […]"}, "[2]": {"tested_on": "autophagy related proteins in HepG2 cells", "test": "Western blot of autophagy related proteins in HepG2 cells", "format": "cell-based, human", "conditions": "time dependent", "procedure": "Western blot analysis. Approximately 0.5×10^6 cells were grown on 60 mm culture plates and exposed to drugs as indicated for the desired time. The cells were then scraped out, washed in ice cold 1× PBS and pelleted down at 13000 rpm for 2 min. The pelleted cells were suspended in 150 μL of ice-cold whole cell lysis buffer[(20 mMTris of pH 7.4, 250 mM NaCl, 2 mM EDTA, 0.1% Triton, 1 mM DTT (1,4-dithiothreitol), 0.5 mM PMSF, 4 mM sodium orthovanadate, aprotinin (5 mg m/L) and leupeptin (5 mg m/L)] and kept in ice for 30 min, with intermittent vortexing every 5 min. After incubation, the lysate was centrifuged at 13000 rpm for 10 min at 4° C. and the supernatant was collected. The total protein content in the lysate was estimated by Bradford's method, and was then denatured by boiling with 5× loading dye before separating the proteins by SDSpolyacrylamidegel electrophoresis (SDS-PAGE). […]"}, "[3]": {"tested_on": "HCT-116", "conditions": "literature ref 13; read-out: IC50, cytotoxicity against HCT-116 (colon cancer cells); cited from earlier work"}},
  "note": "pIC50: −log10 of the molar value.",
  "data": [
    {"smiles": "C[C@H](CC[C@@]1(O)O[C@H]2C[C@H]3[C@@H]4CC[C@H]5C[C@@H](O[C@@H]6O[C@H](CO)[C@H](O[C@@H]7O[C@H](CO)[C@@H](O)[C@H](O[C@@H]8OC[C@@H](O)[C@H](O)[C@H]8O)[C@H]7O[C@@H]7O[C@H](CO)[C@@H](O)[C@H](O)[C@H]7O)[C@H](O)[C@H]6O)CC[C@]5(C)[C@H]4CC[C@]3(C)[C@H]2[C@@H]1C)CO[C@@H]1O[C@H](CO)[C@@H](O)[C@H](O)[C@H]1O", "note": "[Uttroside B]", "values": [
      {"measurement": "viable normal immortalized hepatocytes", "setting": "[1]", "value": 70, "unit": "%"},
      {"measurement": "expression of autophagy related proteins, HepG2", "setting": "[2]", "value": "induces up-regulation of all autophagy related proteins in a time dependent manner"},
      {"measurement": "pIC50", "setting": "[3]", "value": 5.63}
    ]}
  ]
}
